In PMC9130233, “An inhibitor of RORγ for chronic pulmonary obstructive disease treatment” (Scientific Reports, 2022):
Marks after values point to notes of the source that are not given here.

Assays:
[1] = system: IL-17 release in human neutrophils; test: IL-17 release, human neutrophils, PMA + ionomycin; format: cell-based; conditions: Neutrophil, n = 4, read-out: potency, IL-17 release inhibition
Method: The human neutrophils were isolated by Ficoll-Hypaque by centrifugation of blood from healthy subjects at 700 g for 30 min, followed by erythrocyte lysis with distilled water for 30 s. Cells were washed in PBS and post 1 h treatment with PCCR-1, cells were stimulated with 50 ng/mL PMA and 2 µg/mL Ionomycin. After 18 h the supernatant was collected for IL-17 estimation by ELISA.

[2] = system: IL-17 in peritoneal macrophages; test: IL-17 release, mouse peritoneal macrophages, LPS; format: cell-based; conditions: Peritoneal macrophage, n = 2, read-out: IC50, IL-17 inhibition
Method: The peritoneal neutrophils or macrophages were isolated from C57BL/6 male mice or BALB/c female mice (6–8 wks; 18–22 g) injected with 3% or 4% thioglycollate broth. After 4 h or 4 days, RPMI medium was injected into the peritoneal cavity of mouse and peritoneal lavage was collected. The lavage was pooled and spun at 800 rpm for 10 min. The pellet was re-suspended in 1X Gey’s solution for 5 min followed by PBS wash. In case of neutrophils, the isolated cells were seeded in 48 well plate for 1.5 h. After 1.5 h, the supernatant containing peritoneal neutrophils were collected and centrifuged at 2000 rpm for 10 min and the pellet were re-suspended in 2% RPMI. In case of isolated peritoneal macrophages, the cells were seeded in 48 well plate for 3–4 h followed by PBS wash. Both the neutrophils and macrophages were treated with PCCR-1 in 2% RPMI for 1 h followed by stimulation with 10 µg/ml or 5 µg/ml of LPS for 18 h or 24 h. The supernatant collected for IL-17 estimation by ELISA.

[3] = system: Cerep Panel of receptors, ion channels and enzymes; test: Cerep panel of receptors (binding/functional assays); set-up: key: NSE No significant effect; V wk very weak (very low-level agonist activity seen with mPPARγ); conditions: at 10 µM, except targets listed in the next line
Text: (§1) Based on the homology of the ligand binding domains, 3 different isoforms of ROR (hRORα, hRORβ and hRORγ) are reported. Small variations in the LBD regions possibly lead to differences in competitive binding between the nuclear receptors of the ROR isoforms (Fig. 1b). Similar to the assessment of RORγ binding assay, TR-FRET binding assays were also used to assess the affinity of PCCR-1 for other ROR isoforms. […] This was reconfirmed in cellular functional assays for the selected isoforms and nuclear receptors using Gal4 DBD with luciferase reporter system from Indigo (PA, USA). […] In addition, both cellular agonist and antagonist effects as well as for enzyme activity were evaluated with a known reference compound for each target, using a radiolabeled method (Eurofins Cerep, France, Table 1).

Ca Channel (L type) = test: Cerep panel, Ca channel (L type)
Text: as §1

[4] = system: Th1 (IL-2 and IFN-γ) and Th2 (IL-4, IL-13 and IL-10) dependent cytokines in hPBMCs; test: Th1 and Th2 cytokine release, human PBMC, TCR activating conditions; format: cell-based; conditions: hPBMC, even at 10 µM
Method: An increase in the levels of Th17 dependent cytokine in the peripheral blood of COPD patients as compared to the Th1 and Th2 dependent cytokines has been well documented in a subset of COPD patients. A comparative study was performed under TCR activating conditions to evaluate the potencies of PCCR-1 for inhibition across Th1, Th2 and Th17 dependent cytokines using hPBMCs.
Human whole blood from healthy subjects were procured from Clinical Research Unit, Sanpada. Clinical Research Center Glenmark (Plot No. D, 508, Turbhe, TTC Industrial Area, MIDC, Sanpada, Navi Mumbai, Maharashtra 400705, India). PBMCs were isolated using heparinized blood with Ficoll Histopaque. Briefly, the cells were seeded in 96-well plate pre-coated with human anti-CD3 mAb (10 µg/mL), post 30 min of compound treatment cells were stimulated with human anti-CD28 mAb (2 µg/mL). After 72 h of culture, the supernatant was collected for Th1/Th2 cytokines; IFN-γ, IL-2, IL-4 and IL-10 and measured by ELISA. For Th17 polarization assay, the following cytokine cocktail was used: IL-1β (10 ng/ml), IL-23(10 ng/ml), IL-6 (50 ng/ml), TGF-β1 (3 ng/ml), IL-2 (20U/ml) and supernatants were used for measuring IL-17 and IL-22 by ELISA.

[5] = 14-day dose-range inhalation toxicology study in Sprague Dawley rats; format: in vivo, rat
Method: Rats were exposed to PCCR-1 aerosols at 3.4, 10.8 and 32.1 mg/kg/day (delivered dose) for 60 min daily for 14 days using a snout only exposure technique via a modular stainless steel flow past inhalation chamber at indicated doses as mentioned in Table 3. No treatment-related findings noted, including myeloid:erythroid (M:E) ratios in any dose levels except minimal changes in the reticulocytes and adrenal glands.
The 14-day dose-range inhalation toxicology study was conducted at Charles River Laboratories Edinburgh Ltd, Elphinstone Research Centre, Tranent, East Lothian, EH33 2NE, UK, under the Home Office Project License No. PPL 70/8778, Toxicology of Pharmaceuticals. The UK Home Office controls scientific procedures on animals in the UK and does so by the issue of licences under the Animals (Scientific Procedures) Act 1986. The regulations conform to EU Directive 2010/63/EU and achieve the standard of care required by the US Department of Health and Human Services' Guide for the Care and Use of Laboratory Animals.
The toxicology study was done in SD (Sprague Dawley) rats that were exposed to PCCR-1 aerosol for 60 min daily at 3.4, 10.8 and 32.1 mg/kg/day (delivered dose) for 14 days using a snout only exposure technique via a modular stainless steel flow past inhalation chamber. A 60% w/w blend of PCCR-1 in Lactose LH201 was prepared by adding the appropriate amount of PCCR-1 to the appropriate amount of lactose. The estimated delivered doses were derived based on analytical aerosol concentration, and respiratory minute volume calculated based on body weight, exposure duration, and animal body weight (Supplementary section B).

[6] = Females (n = 5/group), 32.1 mg/kg/day
[7] = Males (n = 5/group), 32.1 mg/kg/day

In the case of `CCn1c(C(C)(C)Oc2ccc(F)cc2F)nc2cc(NC(=O)Cc3ccc(S(=O)(=O)CC)cc3)ccc21` [PCCR-1], the IC50 [1] is reported as 3660 nM, the IC50 [2] is reported as 1390 nM and the “Cerep Panel of receptors (binding/functional assays)” value [3] is reported as “NSE at 10 µM except#”. For the same compound, the IC50 (Ca Channel (L type)) was 2600 nM, the “inhibition of Th1 (IL-2 and IFN-γ) and Th2 (IL-4, IL-13 and IL-10) dependent cytokines” value [4] was “did not show significant inhibition” and the “Microscopic changes: Hypertrophy; zona fasciculata, diffuse (animals affected)” value [5, 6] was 3. For the same compound, the “Microscopic changes: hypertrophy, Mild (animals affected)” value [5, 6] was 2, the “Microscopic changes: hypertrophy, Minimal (animals affected)” value [5, 6] was 1 and the “adrenal gland Absolute weight (mean ± SD)” value ([5]; Females, 32.1 mg/kg/day) was 0.0950 ± 0.0139 g. For the same compound, the “adrenal gland weight Relative to body weight (mean ± SD)” value ([5]; Females, 32.1 mg/kg/day) was 0.03168 ± 0.00549%, the “adrenal gland weight Relative to brain weight (mean ± SD)” value ([5]; Females, 32.1 mg/kg/day) was 4.657 ± 0.6176% and the “Reticulocyte count (mean ± SD)” value ([5]; Females, 32.1 mg/kg/day, P ≤ 0.01) was 295.4 ± 40.3* 10^9/L. For the same compound, the “Microscopic changes: Hypertrophy; zona fasciculata, diffuse (animals affected)” value [5, 7] was 0, the “Microscopic changes: hypertrophy, Mild (animals affected)” value [5, 7] was 0 and the “Microscopic changes: hypertrophy, Minimal (animals affected)” value [5, 7] was 0. For the same compound, the “Reticulocyte count (mean ± SD)” value ([5]; Males, 32.1 mg/kg/day) was 287.7 ± 62.6 10^9/L, the “adrenal gland Absolute weight (mean ± SD)” value ([5]; Males, 32.1 mg/kg/day) was 0.0581 ± 0.0083 g and the “adrenal gland weight Relative to body weight (mean ± SD)” value ([5]; Males, 32.1 mg/kg/day) was 0.01553 ± 0.00171%. The “adrenal gland weight Relative to brain weight (mean ± SD)” value ([5]; Males, 32.1 mg/kg/day) was 2.803 ± 0.3041%, the MTD at 14 days ([5]; Sprague Dawley, in vivo, inhaled or intranasal, rat, 14-day inhalation, read-out: maximum tolerated dose) was 32.1 mg/kg/day and the “Microscopic changes: hypertrophy, Minimal (animals affected)” value ([5]; female, Sprague-Dawley, rat, in vivo, 14 days) was 0. For the same compound, the “histopathological change of the adrenal gland” value ([5]; rat, in vivo) was “bilateral diffuse hypertrophy of the zona fasciculata” and the “reticulocyte count compared with the control group” value ([5]; rat, in vivo) was 1.09 fold.
